The record followed here is patent US20190201494A1, “COMPOSITIONS AND METHODS FOR TREATING NICOTINE WITHDRAWAL” (STC UNM, priority 2016, published 2019).

“Also recorded” adds a separate entry of the source.

In the assay the test system is overnight abstinent smokers. The assay is described as follows: Questionnaire on Smoking Urges Brief ratings, overnight abstinence with Trier Social Stress Test (Example 1, parallel study). It is filed as in vivo, human. The protocol:
Session 2 methodology and results are presented in this publication.
Subjects started their overnight abstinence at 8 PM the night before reporting to the University of New Mexico Clinical and Translational Science Center. At 8 AM the following day, abstinence from smoking was confirmed with a CO reading on a coVita piCO+ breathalyzer less than 50% of their baseline CO recorded at intake. […] Exposure to nicotine was analyzed by quantitative liquid chromatography-tandem mass spectrometry. Cutoff for nicotine was 2 ng/mL for nicotine.
Following negative urine drug and pregnancy tests, at 8:30 AM, subjects completed their morning assessment of smoking urges and mood. A salivary cortisol sample was also taken at this time. They were then provided breakfast (a slice of banana bread, one apple, and two cheese sticks), which they had to eat entirely. The rest of the morning, subjects watched and read emotionally neutral movies and literature. At 11:45 AM, a study nurse inserted the intravenous line, completed a point-of-care (POC) glucose check and nares assessment.
Intranasal spray administration of insulin or placebo occurred at 12:30 PM. The purpose of the spacing time between morning check-in and nasal spray administration was stabilization of postprandial insulin levels. In a randomized fashion, the study nurse administered one spray in each nostril every three minutes for the total of six sprays of either insulin or placebo. Instructions to perform the Trier Social Stress Test were given at 13:20, and speech delivery occurred 13:30. Briefly, the Trier Social Stress Test^13 is a standardized laboratory stressor consisting of a free speech and a mental arithmetic task in front of an audience. Participants were introduced to the task and instructed to prepare a 5-minute presentation in which they were to promote their candidacy for a job. The speech was delivered after a 10-minute preparation period. Thereafter, participants were introduced to the mental arithmetic task, also standing in front of the audience and a self-projecting television screen. Subjects were required to count backwards from 2023 in steps of 17 as fast and accurately as possible for five minutes; upon making a mistake, subjects were asked to stop and start again at 2023. At every post-stress timepoint (13:40, 13:50, 14:00, 14:10, and 14:40), study nurses checked POC glucose to ensure euglycemia. After the last time point at 14:40, subjects ate a snack, had their glucose level checked, received another nares exam, and were discharged from the clinic at 16:00.
Subjective measures included the Questionnaire on Smoking Urges (QSU) Brief Form and Positive and Negative Affect Schedule (PANAS). Urges to smoke were rated using the 10-item QSU Brief Form^14 that consists of 10-questions. The answers are scored from 1 (strongly disagree) to 7 (strongly agree). These questions are the basis for the two factor derived subscales. Factor 1 subscale reflects a strong desire and intention to smoke with smoking perceived as rewarding. Factor 2 subscale reflects an anticipation of relief from negative affect with an urgent desire to smoke. Study data analysis included evaluations of both factors. The PANAS (Watson et al., 1988. J Pers Soc Psychol 54(6):1063-1070) consists of 10 negative and 10 positive mood terms rated on five-point Likert-type response scales from 1 (very slightly or not at all) to 5 (extremely). Positive and negative scale scores each range between 10 and 50. The PANAS was chosen as a composite measure of self-reported positive and negative affect. Subjective measures were taken at 08:30, 12:20, 13:00, 13:40, 13:50, 14:00, 14:10 and 14:40.
Placebo contained normal saline (0.9% NaCl). The product was prepared in a biosafety cabinet 30 minutes before administration. Insulin or placebo was placed in a 10 mL amber glass bottle (Gerresheimer AG, Düsseldorf, Germany), which was capped with a 10 mg sterile nasal pump (Aero Pump GmbH, Hochheim, Germany). […]

Turning to “intranasal insulin: bulk human Regular insulin (U100 Novolin R, Novo Nordisk US), 100 IU/ml, six nasal sprays delivering 60 IU”, where the note is “60 IU intranasal, overnight abstinence, through Trier Social Stress Test, p≤0.05”, the “Smoking urges / nicotine cravings (Questionnaire on Smoking Urges Brief) compared to placebo” value is on record as “decreased significantly; also recorded: significant reduction of nicotine cravings”. For the same substance, the “Smoking urges, treatment×time interaction, b” value (60 IU vs placebo, SE(b)=0.032, z=1.93, p≤0.05) is 0.064. Moreover, the “Smoking urges, main effect of treatment, b” value (60 IU vs placebo, SE(b)=4.81, z=1.39, p=0.16, not significant) was 6.66. For the same substance, the “QSU-Brief Factor 2 (anticipation of relief from negative affect) compared to placebo” value (60 IU, overnight abstinence, interaction non-significant) is recorded as “no effect; also recorded: not Factor 2 scale”. The “QSU-Brief Factor 1 (strong desire and intention to smoke) compared to placebo” value is, setting by setting: (60 IU, overnight abstinence, p≤0.05) “overall decrease in smoking urges was driven by intranasal insulin's effect on Factor 1”; (60 IU, overnight abstinence, p≤0.05, listed as Intranasal insulin) “significantly decreased”. The “Duration of effect on QSU-Brief Factor 1” value (60 IU, detected immediately following treatment administration) is not below 100 min. In addition, the “QSU-Brief Factor 2, treatment×time interaction, b” value (SE(b)=0.01, z=1.48, p=0.14) amounted to 0.02. The “QSU-Brief Factor 1, treatment×time interaction, b” value (SE(b)=0.018, z=2.15, p≤0.05) is 0.039. The “QSU-Brief Factor 2, main effect of treatment, b” value (SE(b)=2.37, z=1.58, p=0.11) is listed as 3.76. Moreover, the “QSU-Brief Factor 1, main effect of treatment, b” value (SE(b)=2.61, z=1.36, p=0.17) was 3.55.
